These results are taken from US20240246984A1, “HETEROCYCLIC JAK INHIBITOR” (BEIJING INNOCARE PHARMA TECH CO., LTD., priority 2020, published 2024).

The test system of test [1] is IL-12-induced IFN-γ secretion in NK92 cells. Put plainly: Inhibition of IL-12-induced IFN-γ secretion in NK92 cells (ELISA). It counts as cell-based. The following applies: Homo sapiens, IL-12 stimulation, 24 hours, read-out: IC50 (NK92IL12/IFN-γ). The protocol:
The effect of the compounds of the present invention on IFN-γ secretion in IL-12-induced NK92 cells was evaluated by an enzyme-linked immunosorbent assay (ELISA).
The assay principle was generally described below: IL-12R was mainly expressed in activated T-cells, NK cells (NK92 was an NK cell line), DC cells, and B-cells. When binding to IL-12, it activated the JAK2/TYK2 signal transduction pathway within NK cells and activated T lymphocytes, thereby inducing secretion of IFN-γ.
The compound was dissolved to 2.5 mM in DMSO, followed by a serial 4-fold dilution with DMSO to a minimum concentration of 0.31 μM. Each concentration was further diluted 50-fold with an FBS-free MEMα medium (Thermofisher. 12561-056).
NK92 cells (Nanjing Cobioer, CBP60980) were cultured in a complete MEMα medium containing 12.5% FBS (Ausbian, VS500T), 12.5% horse serum (Thermofisher, 16050-122), 0.02 mM folic acid (Sigma, F8758), 0.2 mM inositol (Sigma, 17850), 0.55 mM β-mercaptoethanol (Thermofish, 21985-023), 200 U/mL IL-2 (R&D Systems, 202-1L), and 100 U/mL penicillin-streptomycin mixed liquor (ThermoFisher, 15140122). When covering 80-90% of the culture container surface, the cells were dispersed and plated on a 96-well plate (ThermoFisher, 167425) with 100,000 cells per well (80 μL of the complete MEMα medium without IL-2). The 96-well plate was then incubated overnight in a 37° C., 5% CO2 incubator.
After overnight incubation, 10 μL of the compound and 10 μL of 50 ng/ml IL-12 (R &D Systems, 219-1L) were added to each well and mixed gently, and the 96-well plate was incubated in the 37° C., 5% CO2 incubator for additional 24 hours. The plate was centrifuged at 800 rpm for 10 minutes at room temperature and 50 μL of the supernatant from each well was transferred to another 96-well plate (Sigma, CLS3695) coated with anti-IFN-γ antibody. The amount of IFN-γ secretion was detected following the instruction from the Human IFN-γ DuoSet ELISA assay kit (R & D Systems, DY285B). In this assay, the group in which IL-12 and the test compound were replaced with the MEMα medium was the non-stimulated control group (100% inhibition), and the group with IL-12 and 0.2% DMSO was the stimulated control group (0% inhibition). The compound inhibition curve was plotted using XLfit software and the IC50 of its inhibition was calculated.
Background: ELISA stands for enzyme-linked immunosorbent assay.

Test [2] concerns the target human recombinant JAK2 protein (Homo sapiens, UniProt O60674). Put plainly: JAK2 activity inhibition assay (HTRF kinase detection). Format: biochemical. The following applies: 2.5 μM ATP substrate solution. The protocol:
The effect of the compounds of the present invention on the activity of JAK2 was assessed by using an in vitro kinase detection assay.
The enzymatic activity of JAK2 was assessed by detecting the substrate phosphorylation level in a kinase reaction with a homogeneous time-resolved fluorescence (HTRF) kinase detection kit (Cisbio, 62TK0PEC). A reaction buffer contained an enzyme buffer (1×), 5 mM MgCl2, 1 mM DTT and 0.01% Brij35 from the kit; a human recombinant JAK2 protein (Carna Biosciences, 08-045) was diluted to a kinase reaction solution of 0.15 ng/μL with the reaction buffer; a substrate reaction solution contained 2.5 μM ATP and a biotin-labeled tyrosine kinase substrate diluted to 0.25 μM with the reaction buffer; a detection buffer contained 0.1 ng/μL Eu^3+ labeled cage antibody (Cisbio, 61T66KLB) and 12.5 nM streptavidin-labeled XL665 (Cisbio, 610SAXLB) in the reaction buffer; the compound was dissolved to 10 μM in DMSO, followed by a serial 4-fold dilution with DMSO to a minimum concentration of 0.061 nM. Each concentration was further diluted 40-fold with the reaction buffer. To a 384-well assay plate (Corning, 3674) were added 4 μL of the compound solutions having a series of concentrations and 2 μL of JAK2 kinase reaction solutions. After being mixed evenly, the mixtures were incubated at room temperature for 15 minutes, and then 4 μL of the substrate reaction solutions were added. The reaction mixtures were incubated at room temperature for 30 minutes. Then the reaction mixtures were added with 10 μL of detection solutions, mixed evenly, and allowed to stand at room temperature for 30 minutes. An Envision plate reader (Perkin Elmer) was then used to measure the progress of the reaction at wavelengths of 620 nm and 665 nm. The signal value (absorbance at 665 nm/absorbance at 620 nm) was positively correlated with the degree of substrate phosphorylation, therefore the kinase activity of JAK2 was detected. In this assay, the group without JAK2 kinase protein was the 100% inhibition group, and the group with JAK2 kinase protein but without the test compound was the 0% inhibition group. The compound inhibition curve was plotted using XLfit software and the IC50 of its inhibition was calculated.

Test [3] concerns the target human recombinant TYK2 protein (Homo sapiens, UniProt P29597). The test is described as follows: TYK2 activity inhibition assay (HTRF kinase detection). It counts as biochemical. The following applies: 11.25 μM ATP substrate solution. The protocol: The effect of the compounds of the present invention on the activity of TYK2 was assessed by using an in vitro kinase detection assay.
The enzymatic activity of TYK2 was assessed by detecting the substrate phosphorylation level in a kinase reaction with a homogeneous time-resolved fluorescence (HTRF) kinase detection kit (Cisbio, 62TK0PEC). A reaction buffer contained an enzyme buffer (1×), 5 mM MgCl2, 1 mM DTT and 0.01% Brij35 from the kit; a human recombinant TYK2 protein (Carna Biosciences, 08-147) was diluted to a kinase reaction solution of 0.25 ng/μL with the reaction buffer; a substrate reaction solution contained 11.25 μM ATP and a biotin-labeled tyrosine kinase substrate diluted to 0.5 μM with the reaction buffer; a detection buffer contained 0.1 ng/μL Eu^3+ labeled cage antibody (Cisbio, 61T66KLB) and 25 nM streptavidin-labeled XL665 (Cisbio, 610SAXLB) in the reaction buffer; the compound was dissolved to 10 μM in DMSO, followed by a serial 4-fold dilution with DMSO to a minimum concentration of 0.061 nM. Each concentration was further diluted 40-fold with the reaction buffer. To a 384-well assay plate (Corning, 3674) were added 4 μL of the compound solutions having a series of concentrations and 2 μL of kinase reaction solutions. After being mixed evenly, the mixtures were incubated at room temperature for 15 minutes, and then 4 μL of the substrate reaction solutions were added. The reaction mixtures were incubated at room temperature for 40 minutes. Then the reaction mixtures were added with 10 μL of detection solutions, mixed evenly, and allowed to stand at room temperature for 30 minutes. An Envision plate reader (Perkin Elmer) was then used to measure the progress of the reaction at wavelengths of 620 nm and 665 nm. The signal value (absorbance at 665 nm/absorbance at 620 nm) was positively correlated with the degree of substrate phosphorylation, therefore the kinase activity of TYK2 was detected. In this assay, the group without TYK2 kinase protein was the 100% inhibition group, and the group with TYK2 kinase protein but without the test compound was the 0% inhibition group. The compound inhibition curve was plotted using XLfit software and the IC50 of its inhibition was calculated.
A general note: In TR-FRET formats the signal depends on donor and acceptor labels being close together.

As for `O=C1NCCn2c(-c3c(F)cccc3F)nc(Nc3ccc(C(=O)N4CCOCC4)cc3)c21` [Compound 2, 3-(2,6-difluorophenyl)-1-((4-(morpholine-4-carbonyl)phenyl)amino)-6,7-dihydroimidazo[1,5-a]pyrazin-8(5H)-one], the IC50 in test [1] was 95 nM.
In the case of `O=C(c1ccc(Nc2nc(-c3c(F)cccc3Cl)n3cc[nH]c(=O)c23)cc1)N1CCOCC1` [Compound 3, 3-(2-chloro-6-fluorophenyl)-1-((4-(morpholine-4-carbonyl)phenyl)amino)imidazo[1,5-a]pyrazin-8(7H)-one], the IC50 in test [2] was 0.4 nM; in test [3] it was 0.1 nM; in test [1], 66 nM.
As for `Cn1cc(Nc2nc(-c3c(F)cccc3F)n3cc[nH]c(=O)c23)cn1` [Compound 4, 3-(2,6-difluorophenyl)-1-((1-methyl-1H-pyrazol-4-yl)amino)imidazo[1,5-a]pyrazin-8(7H)-one], the IC50 in test [2] worked out at 2 nM; in test [3], 0.8 nM; in test [1], 175 nM.
As to `Cn1cc(Nc2nc(-c3c(F)cccc3F)n3c2C(=O)NCC3)cn1` [Compound 5, 3-(2,6-difluorophenyl)-1-((1-methyl-1H-pyrazol-4-yl)amino)-6,7-dihydroimidazo[1,5-a]pyrazin-8(5H)-one], the IC50 was determined as 27 nM in test [2], 4.8 nM in test [3] and 1310 nM in test [1].
For `O=c1[nH]ccn2c(-c3c(F)cccc3F)nc(Nc3ccc(N4CCOCC4)cc3)c12` [Compound 6, 3-(2,6-difluorophenyl)-1-((4-morpholinophenyl)amino)imidazo[1,5-a]pyrazin-8(7H)-one], in that order: 5.3 nM, 0.3 nM and 198 nM.
In the case of `Cn1ccc(Nc2nc(-c3c(F)cccc3F)n3cc[nH]c(=O)c23)n1` [Compound 7, 3-(2,6-difluorophenyl)-1-((1-methyl-1H-pyrazol-3-yl)amino)imidazo[1,5-a]pyrazin-8(7H)-one], the IC50 in test [2] came out at 62 nM; in test [3], 20 nM.
Turning to `Cn1ccc(Nc2nc(-c3c(F)cccc3F)n3c2C(=O)NCC3)n1` [Compound 8, 3-(2,6-difluorophenyl)-1-((1-methyl-1H-pyrazol-3-yl)amino)-6,7-dihydroimidazo[1,5-a]pyrazin-8(5H)-one], the IC50 in test [3] was 220 nM.
For the compound `O=c1[nH]ccn2c(-c3c(F)cccc3F)nc(Nc3ccc(N4CCOCC4)cn3)c12` [Compound 9, 3-(2,6-difluorophenyl)-1-((5-morpholinopyridin-2-yl)amino)imidazo[1,5-a]pyrazin-8(7H)-one], the figures for the IC50 in test [2] and in test [3] were 13 nM and 7 nM, respectively.
With `O=C1NCCn2c(-c3c(F)cccc3F)nc(Nc3ccc(N4CCOCC4)cc3)c21` [Compound 10, 3-(2,6-difluorophenyl)-1-((4-morpholinophenyl)amino)-6,7-dihydroimidazo[1,5-a]pyrazin-8(5H)-one], the IC50 in test [2] was determined as 4.4 nM; in test [3], 0.4 nM; in test [1], 122 nM.
In the case of `CC(=O)N1CCC(c2nc(Nc3ccc(C(=O)N4CCOCC4)cc3)c3c(=O)[nH]ccn23)CC1` [Compound 19, 3-(1-acetylpiperidin-4-yl)-1-((4-(morpholine-4-carbonyl)phenyl)amino)imidazo[1,5-a]pyrazin-8(7H)-one], the IC50 was found to be 14 nM in test [2] and 23 nM in test [3].
In the same order, the values of `O=C(c1ccc(Nc2nc(C3CCNCC3)n3cc[nH]c(=O)c23)cc1)N1CCOCC1` [Compound 20, 1-((4-(morpholine-4-carbonyl)phenyl)amino)-3-(piperidin-4-yl)imidazo[1,5-a]pyrazin-8(7H)-one] are 53 nM and 37 nM.
Take `O=C(c1ccc(Nc2nc(C3CCN(C4CC4)CC3)n3cc[nH]c(=O)c23)cc1)N1CCOCC1` [Compound 21, 3-(1-cyclopropylpiperidin-4-yl)-1-((4-(morpholine-4-carbonyl)phenyl)amino)imidazo[1,5-a]pyrazin-8(7H)-one]: the IC50 in test [2] and in test [3] was 12 nM throughout.
`O=C(c1cccc(Nc2nc(-c3c(F)cccc3F)n3cc[nH]c(=O)c23)c1)N1CCOCC1` [Compound 22, 3-(2,6-difluorophenyl)-1-((3-(morpholine-4-carbonyl)phenyl)amino)imidazo[1,5-a]pyrazin-8(7H)-one]: the IC50 in test [2] came to 3.9 nM; in test [3], 3.3 nM.
In the same order, the values of `O=C1NCCn2c(-c3c(F)cccc3F)nc(Nc3cccc(C(=O)N4CCOCC4)c3)c21` [Compound 23, 3-(2,6-difluorophenyl)-1-((3-(morpholine-4-carbonyl)phenyl)amino)-6,7-dihydroimidazo[1,5-a]pyrazin-8(5H)-one] are 29 nM and 50 nM.
Turning to `O=C1NCCn2c(-c3c(F)cccc3F)nc(Nc3cnn(CC(=O)N4CCOCC4)c3)c21` [Compound 24, 3-(2,6-difluorophenyl)-1-((1-(2-morpholino-2-oxoethyl)-1H-pyrazol-4-yl)amino)-6,7-dihydroimidazo[1,5-a]pyrazin-8(5H)-one], the IC50 was found to be 42 nM in test [2] and 3.2 nM in test [3].
Consider `CN1CCN(C(=O)Cn2cc(Nc3nc(-c4c(F)cccc4F)n4c3C(=O)NCC4)cn2)CC1` [Compound 25, 3-(2,6-difluorophenyl)-1-((1-(2-(4-methylpiperazin-1-yl)-2-oxoethyl)-1H-pyrazol-4-yl)amino)-6,7-dihydroimidazo[1,5-a]pyrazin-8(5H)-one], for which the IC50 was found to be 39 nM in test [2] and 5.1 nM in test [3].
